Laboratory results from patent US9279810B2, “Cell binding peptides for diagnosis and detection” (Affinergy, LLC, priority 2013, dated 2016).

Legend:
blood leukocytes = test: Capture of leukocytes from urine with biotinylated cell binding peptide on streptavidin magnetic beads (same test, obscuring cells); format: cell-based; conditions: cells captured on peptide-magnetic bead conjugate from 5 ml human urine; leukocyte:J82 mixture 12.5:1 to 20:1; unit not given
Protocol: (§1) A green fluorescent leukocyte preparation was prepared as follows. Red blood cells in 2 ml anti-coagulated human blood were lysed by the addition of 30 ml of a hypotonic medium and incubation for 10 min at room temperature. Intact cells and debris were recovered by centrifugation at 300×g. Pelleted material was resuspended with PBS/0.5% BSA/2 mM EDTA and filtered through a 100 micron nylon filter. Leukocytes (3×10^6) were labeled with 5 μM Cell Tracker Green CMFDA (LIFE TECHNOLOGIES/MOLECULAR PROBES) in EMEM growth medium without serum for 45 min. Excess dye was removed by centrifugation at 500×g for 5 min and washing with PBS/0.5% BSA/2 mM EDTA and cells were exposed to 10% serum containing medium for 45 min to allow dye conversion.
Red fluorescent J82 cells were prepared as follows: An 80% confluent culture of J82 bladder cancer cells was labeled with 5 μM Cell Tracker Red CMPTX (LIFE SCIENCES/MOLECULAR PROBES) in EMEM growth medium without serum for 90 min. Excess dye was removed by washing the flask with EMEM/10% FBS and cells were exposed to 10% serum containing medium for 1.5 h for dye conversion. The cells were then washed with PBS and released from the flask with 0.05% trypsin. Cells were recovered and trypsin removed by centrifugation at 500×g followed by washing in PBS/0.5% BSA/2 mM EDTA. […]

J82 bladder cancer cells = test: Capture of cultured J82 tumor cells from urine with biotinylated cell binding peptide on streptavidin magnetic beads; format: cell-based, human; conditions: for J82 bladder tumor cells: cells captured on peptide-magnetic bead conjugate from 5 ml human urine, leukocyte:J82 mixture 12.5:1 to 20:1, unit not given; for Enrichment Factor: ratio J82:total leukocytes after capture divided by ratio before capture, urine
Protocol: as §1
Red fluorescent J82 cells were prepared as follows: An 80% confluent culture of J82 bladder cancer cells was labeled with 5 μM Cell Tracker Red CMPTX (LIFE SCIENCES/MOLECULAR PROBES) in EMEM growth medium without serum for 90 min. Excess dye was removed by washing the flask with EMEM/10% FBS and cells were exposed to 10% serum containing medium for 1.5 h for dye conversion. The cells were then washed with PBS and released from the flask with 0.05% trypsin. Cells were recovered and trypsin removed by centrifugation at 500×g followed by washing in PBS/0.5% BSA/2 mM EDTA.
Biotinylated peptides SEQ ID NO: 1 and SEQ ID NO: 10 were synthesized with a C-terminal Peg10 group attached to a lysine as described in Example 1. The biotinylated peptides were conjugated to magnetic microbeads (MILTENYI) by incubating 400 μl of bead suspension in 20 μM peptide for 30 min on ice with occasional mixing. Unbound peptide was removed by binding the beads to a Miltenyi MS column placed in a magnetic field. Beads were washed with PBS/0.5% BSA/2 mM EDTA and peptide conjugated beads released by removing the Miltenyi MS column from the magnetic field. A mixture of green fluorescent leukocytes and red fluorescent J82 bladder cancer cells was variously prepared in ratios between 12.5:1 and 20:1. The cell mixture (725,000 cells total) was added to 5 ml human urine and then 250 μl of peptide-magnetic bead conjugate. The whole was incubated for 45 min at room temperature with rotation.
To capture cells the peptide-magnetic bead cell mixture was passed over a Miltenyi MS column pre-equilibrated with PBS/0.5% BSA/2 mM EDTA and held in a magnetic field. Unbound cells were washed out with PBS/0.5% BSA/2 mM EDTA and retained. Cells bound to the peptide-magnetic bead conjugate were released from the Miltenyi MS column by removing the column from the magnetic field. […] The data in FIG. 3 and Table 2 below show a 463-fold to 588-fold enrichment of J82 cells from leukocytes in urine. […]

[1] = system: primary cells from voided urine; test: Capture of primary cells from voided urine on peptide coated glass slide; format: cell-based, human; conditions: for Number of captured basal and intermediate cells/peptide coated area / Number of captured superficial and squamous cells/peptide coated area: cells from 40 mL voided urine, entire peptide coated area 2.67 cm^2, H&E, bright field; for peptide selectivity: preferential capture of cell type: primary cells from voided urine
Protocol: (§2) Peptides were synthesized in a conjugatable format for unidirectional conjugation to glass. Peptides were attached to glass through a covalent bond formed between the lysine on C-terminus of the peptide and an N-Hydroxysuccinimide (NHS) group on the glass. Briefly, microscope glass slides functionalized with NHS groups ((MICROSURFACES, Inc)) were incubated with peptide solution at 200 μM for 2 hours at 30° C., ˜75% RH. At the end of the incubation the slides were washed 3 times for 5 min in washing buffer (1×PBS, 0.05% Tween 20) and subsequently deactivated in deactivation solution (MICROSURFACES, Inc) for 30 min at 30° C., ˜75% RH to deactivate any remaining uncoupled NHS groups. Eventually slides were washed twice for 5 min in washing buffer prior to being blocked for 1 hour in blocking buffer (PBS, 0.5% BSA, 2 mM EDTA).
(§3) Microscope glass slides with discrete areas functionalized with peptide were used as diagnostic cell capture devices as shown in FIG. 1. Cells used were cultured cell lines established from human transitional bladder carcinomas (J82, ATCC HTB-1 and T24, ATCC HTB-4), cells isolated from voided urine of healthy donors (primary cells), a cultured cell line established from human thyroid carcinoma (SW579) or white blood cells (WBC) obtained from human whole blood by lysing red blood cells.
(§4) Cell suspension was prepared in cell capture buffer (PBS, 0.5% BSA, 2 mM EDTA, 0-200 mM glucose) and applied directly to a peptide functionalized slide in which peptide was attached to a glass slide using the N-Hydroxysuccinimide chemistry described in Example 4 with a pipetting device. The cells were incubated on the slide for 15 min and then drained by tipping the slide to the side. The slides were washed by dipping in wash buffer (PBS, 0.5% BSA, 2 mM EDTA) to wash away unbound cells. Slides were fixed in paraformaldehyde, dried, stained (H&E) and cover slipped for microscopic examination in a bright field. For fluorescent microscopy the cells were labeled with fluorescent dyes (CELLTRACKER Green or Red; LIFE TECHNOLOGIES, INC) prior to applying to the slide. Following the 15 min incubation the slides were washed, fixed, dried and mounted with a fluorescent mounting medium for microscopic examination in a dark field.
(§5) Selective capture of urothelial cells, J82, was achieved from a mixture of J82 and white blood cells (WBC) on a peptide coated glass slide using cell binding peptides of the present disclosure. In this Example, peptides were synthesized with a C-terminal Peg10 spacer followed by a lysine and conjugated to the glass slide according to Example 4.
In another experiment, primary cells from voided urine were selectively captured onto peptide coated glass slides. Specifically, cells were isolated from 40 mL of voided urine from a second morning void and applied to a glass slide with a discrete area coated with peptide. Cells were visualized by H&E staining and counted in a bright field. Results are presented in Table 3 below as a cell number per the entire peptide coated area (2.67 cm^2). […] The sample adequacy criterion for urine cytology is at least 15 well visualized basal or intermediate cells^1.

[2] = system: J82 urothelial cancer cells; test: Selective capture of J82 urothelial cells from a mixture of J82 and white blood cells on peptide coated glass slide; format: cell-based, human
Protocol: as §2, §3, §4, §5
The cell binding peptides used in a first experiment were SEQ ID NO: 1, SEQ ID NO: 2, SEQ ID NO: 3, and SEQ ID NO: 4. […] Human WBC and J82 cells were labeled with different CELLTRACKER dyes, mixed at a 1 to 1 ratio and applied to a slide with discrete areas coated with peptides. The slide was washed of unbound cells and captured cells were counted under a fluorescent microscope. Data are presented in FIGS. 5A & 5B as cell number per microscope field at 100× magnification averaged from 10 fields. The slide area not coated with peptide was used as a negative control. Preferential capture of J82 urothelial cells was observed leading to depletion of WBC up to 85%. […] Thus the degree of WBC removal from the diagnostic sample can be controlled by using a peptide most suitable for the application. For example, in some circumstances the presence of some WBCs on the slide may provide valuable clinical information.
In another experiment, selective capture of urothelial cancer cells, J82, was achieved from a mixture of J82 and WBC on a peptide coated glass slide using peptides SEQ ID NO: 5, SEQ ID NO: 6, and SEQ ID NO: 7. […] Human WBC and J82 cells were labeled with different CELLTRACKER dyes, mixed at 7 to 1 ratio and applied to a slide with discrete areas coated with peptides. The slide was washed of unbound cells and captured cells were counted under a fluorescent microscope. […]

[3] = system: SW579 thyroid cancer cells; test: Selective capture of SW579 thyroid cells from a mixture of SW579 and WBC on peptide coated glass slide; format: cell-based, human; conditions: WBC:SW579 1 to 1; compared with SEQ ID NO: 4 and SEQ ID NO: 1
Protocol: as §2
Microscope glass slides with discrete areas functionalized with peptide were used as diagnostic cell capture devices as shown in FIG. 1. […]
In a first experiment peptides SEQ ID NO: 1, SEQ ID NO: 2, SEQ ID NO: 3 and SEQ ID NO: 4 were tested and peptide SEQ ID NO: 10 was used as a positive control. […] The slide was washed of unbound cells and captured cells were counted under a fluorescent microscope. […]

thyroid cancer cells = test: Selective capture of thyroid cancer cells spiked with whole blood on peptide coated slide; format: cell-based, human; conditions: H&E staining, 200x
Protocol: as §3
as §4, with “Following the 15 min incubation the slides were washed, fixed, dried and mounted with a fluorescent mounting medium for microscopic examination in a dark field.” left out

[4] = system: J82 urothelial cancer cells; test: Selective capture of J82 urothelial cancer cells from voided urine spiked with whole blood on peptide coated slide; format: cell-based, human; conditions: voided urine spiked with whole blood and J82 cells; H&E staining, 100x
Protocol: as §3
as §4, with “The” for “Cell suspension was prepared in cell capture buffer (PBS, 0.5% BSA, 2 mM EDTA, 0-200 mM glucose) and applied directly to a peptide functionalized slide in which peptide was attached to a glass slide using the N-Hydroxysuccinimide chemistry described in Example 4 with a pipetting device. The”
In this Example, peptides were synthesized with a C-terminal Peg10 spacer followed by a lysine and conjugated to the glass slide according to Example 4.
In another experiment urothelial cancer cells from voided urine were selectively captured using peptide SEQ ID NO: 5. […]

[5] = J82 (100, 500 or 1000 cells) and WBC mixed 1:72, 15 min incubation
[6] = WBC:J82 1 to 1, compared with SEQ ID NO: 1 and SEQ ID NO: 4
[7] = WBC:J82 7 to 1, compared with SEQ ID NO: 7

SFCPSNHDCIDWFIRSR [SEQ ID NO: 10, used as positive control in the thyroid test]
Total Blood Leukocytes (blood leukocytes): 0.09 | J82 bladder tumor cells (J82 bladder cancer cells): 53.6 | Enrichment Factor (J82 bladder cancer cells): 588

SSFGSDCSPWGCEWVPVSR [SEQ ID NO: 4]
Number of captured basal and intermediate cells/peptide coated area [1]: 21 cells/peptide coated area | Number of captured superficial and squamous cells/peptide coated area [1]: 6 cells/peptide coated area | peptide selectivity: preferential capture of cell type [1]: deep urothelial cells

SSFSNYDSPWGPNWSVISR [SEQ ID NO: 1]
Total Blood Leukocytes (blood leukocytes): 0.1 | J82 bladder tumor cells (J82 bladder cancer cells): 48.2 | Enrichment Factor (J82 bladder cancer cells): 463

SSIEDLPKDWPLFGWMSSR [SEQ ID NO: 2]
depletion of WBCs from the input material [2, 5]: 86% | reduction in WBCs relative to urothelial cells [2, 5]: 7.6 fold | capture selectivity (WBC to J82 end ratio) [2, 6]: more selective | capture selectivity (WBC to SW579 end ratio) [3]: more selective

SSLESVKEPWGPGWIPVSR [SEQ ID NO: 3]
capture selectivity (WBC to J82 end ratio) [2, 6]: more selective | capture selectivity (WBC to SW579 end ratio) [3]: more selective | selective capture of thyroid cancer cells, slide washed (thyroid cancer cells): Blood cells are washed away and thyroid cells retained

SSVALSFQAVPYDFHSSR [SEQ ID NO: 5]
capture selectivity (WBC to J82 end ratio) [2, 7]: more selective | selective capture of urothelial cancer cells, slide washed [4]: Blood cells are washed away and urothelial cells retained | Number of captured basal and intermediate cells/peptide coated area [1]: 40 cells/peptide coated area | Number of captured superficial and squamous cells/peptide coated area [1]: 19 cells/peptide coated area | peptide selectivity: preferential capture of cell type [1]: deep urothelial cells

SSVQHAYQAWPGLGAYTSR [SEQ ID NO: 6]
capture selectivity (WBC to J82 end ratio) [2, 7]: more selective | Number of captured basal and intermediate cells/peptide coated area [1]: 5 cells/peptide coated area | Number of captured superficial and squamous cells/peptide coated area [1]: 35 cells/peptide coated area | peptide selectivity: preferential capture of cell type [1]: superficial and squamous cells
